One experiment has as its target T1, MASP-2 (CCP1-CCP2-SP) (Homo sapiens, UniProt O00187).
T1 construct: 15 μL of Enzyme MASP-2 (CCP1-CCP2-SP) in Assay Buffer
Kind of experiment: Enzymatic assay for MASP-2 inhibitory activity (fluorogenic substrate). The experiment is classed as biochemical. The procedure: The MASP-2 assay utilizes a fluorogenic substrate, based on the cleavage site for its natural substrate C2. The assay was run at room temperature in an assay buffer containing 20 mM HEPES, pH 7.4, 140 mM NaCl and 0.1% Tween 20. Assay parameters were adjusted such that the assay was linear with respect to time, enzyme, and substrate concentrations. Under the optimized assays conditions, IC50 values were equivalent to Ki values, except in the few cases of “tight binding” inhibitors. Cases of “tight binding” or possible “slow binding” inhibitors were handled by the methods described in Copeland R. A. (2013) Evaluation of Enzyme Inhibitors in Drug Discovery. 2nd Ed., John Wiley and Sons, Inc., Chapters 5-7.
The MASP-2 assay protocol was carried out as follows. Test compounds were serially diluted in DMSO and then 100 nL of each dilution was transferred to the assay plate(s). 10 μL of Assay Buffer was added, followed by 15 μL of Enzyme MASP-2 (CCP1-CCP2-SP) in Assay Buffer. 15 μL of Substrate in Assay Buffer was then added and the mixture was mixed to start the reaction. After 20 min at room temperature, 15 μL of a stop solution (0.1 M acetic acid) was added, the sample was mixed, and the plates were read on a SpectraMax i3x Microplate Reader with the data exported as an Excel file. Each assay plate included a “no inhibitor” (DMSO only) control, a “no enzyme” control, and a reference inhibitor control. % Activity values=100*(average test comp. fluorescence−average “no enzyme” fluorescence)/(average “DMSO only” fluorescence−average “no enzyme” fluorescence). IC50 and Ki replicate values were very reproducible, with values well within ±2-fold.

The target of the next experiment is T2, human α-thrombin (Homo sapiens, UniProt P00734).
T2 construct: enzyme (human α-thrombin (BioPharm® Lab.)) in assay buffer; purchased BioPharm® Lab
Kind of experiment: Enzymatic assay for thrombin (fluorogenic peptide substrate Boc-VPR-AMC). The experiment is classed as biochemical. The procedure: The thrombin assay utilizes a fluorogenic peptide substrate (Boc-VPR-AMC (R&D Systems) and was run at room temperature in an assay buffer containing 20 mM Hepes, pH 7.4, 140 mM NaCl and 0.1% Tween 20. Assay parameters were adjusted such that the assay was linear with respect to time, enzyme, and substrate concentrations. Under these optimized assays conditions, IC50 values were equivalent to Ki values, except in a few cases of “tight binding” inhibitors. Cases of “tight binding” or possible “slow binding” inhibitors were handled by the methods described in Copeland R. A. (2013) Evaluation of Enzyme Inhibitors in Drug Discovery. 2nd Ed. John Wiley and Sons, Inc., Chapters 5-7.
The thrombin assay protocol was carried out as follows. Test compounds were serially diluted in DMSO and then 100 nL of each dilution was transferred to the assay plate(s). 10 μL of Assay Buffer was added, followed by 15 μL of enzyme (human α-thrombin (BioPharm® Lab.)) in assay buffer. 15 μL of substrate in assay buffer was then added and the sample mixed to start the reaction. After 20 min at room temperature, 15 μL of a stop solution (0.1 M acetic acid) was added, the sample was mixed, and the plates were read on a SpectraMax® i3x Microplate Reader with the data exported as Excel files. Each assay plate included a “no inhibitor” (DMSO only) control, a “no enzyme” control, and a reference inhibitor control. % Activity values=100*(ave. test comp. fluorescence−ave. “no enz” fluorescence)/(ave. “DMSO only” fluorescence−ave. “no enz” fluorescence). IC50 and Ki values were very reproducible, with values falling well within ±2-fold.

SMILES strings stand for the structures. Where a name gives a salt, the structure may show the parent alone.

The values below come from US20250122225A1, “MASP-2 INHIBITORS AND METHODS OF USE” (Omeros Corporation, priority 2023, published 2025).

T1 sequence (O00187 445-686 limits assumed): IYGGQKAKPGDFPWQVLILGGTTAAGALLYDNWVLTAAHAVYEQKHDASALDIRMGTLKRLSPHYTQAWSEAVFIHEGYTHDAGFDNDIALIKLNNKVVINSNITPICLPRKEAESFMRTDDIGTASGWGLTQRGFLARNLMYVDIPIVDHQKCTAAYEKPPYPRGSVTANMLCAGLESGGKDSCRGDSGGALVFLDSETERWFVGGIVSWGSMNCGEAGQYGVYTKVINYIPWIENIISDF
T1 sequence (O00187 287-444 partner limits assumed): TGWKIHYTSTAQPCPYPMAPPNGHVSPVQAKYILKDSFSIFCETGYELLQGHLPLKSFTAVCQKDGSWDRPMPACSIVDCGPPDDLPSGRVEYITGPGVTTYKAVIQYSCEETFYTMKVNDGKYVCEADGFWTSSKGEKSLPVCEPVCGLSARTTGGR

For the molecule `Cc1cc(C)cc(CNc2ncc3n(c2=O)[C@H](C(=O)NCc2cc4c(s2)CN(C)C4)CC3)c1` [Compound 42, (S)-3-((3,5-dimethylbenzyl)amino)-N-((5-methyl-5,6-dihydro-4H-thieno[2,3-c]pyrrol-2-yl)methyl)-4-oxo-4,6,7,8-tetrahydropyrrolo[1,2-a]pyrazine-6-carboxamide trifluoroacetate], the Ki was under 500 nM at MASP-2 (CCP1-CCP2-SP) and 10000 to 25000 nM at human α-thrombin.
For `Cc1cc(C)cc(CNc2ncc3n(c2=O)[C@H](C(=O)NC(C)c2cc4cnccc4[nH]2)CC3)c1` (stereo partly drawn) [Compound 43, (6S)-N-(1-(1H-pyrrolo[3,2-c]pyridin-2-yl)ethyl)-3-((3,5-dimethylbenzyl)amino)-4-oxo-4,6,7,8-tetrahydropyrrolo[1,2-a]pyrazine-6-carboxamide trifluoroacetate], in that order: under 500 nM and over 25000 nM.
For `Cc1ccc(CNc2ncc3n(c2=O)[C@H](C(=O)NCc2cc4cnccc4[nH]2)CC3)cc1C` [Compound 44, (S)-N-((1H-pyrrolo[3,2-c]pyridin-2-yl)methyl)-3-((3,4-dimethylbenzyl)amino)-4-oxo-4,6,7,8-tetrahydropyrrolo[1,2-a]pyrazine-6-carboxamide], the Ki at MASP-2 (CCP1-CCP2-SP) is under 500 nM; on human α-thrombin it was 500 to 2500 nM.
For `CCc1cccc(CNc2ncc3n(c2=O)[C@H](C(=O)NCc2cc4cnccc4[nH]2)CC3)c1` [Compound 45, (S)-N-((1H-pyrrolo[3,2-c]pyridin-2-yl)methyl)-3-((3-ethylbenzyl)amino)-4-oxo-4,6,7,8-tetrahydropyrrolo[1,2-a]pyrazine-6-carboxamide], in that order: under 500 nM and under 500 nM.
For `CCc1cccc(CNc2ncc3n(c2=O)[C@H](C(=O)NCc2ccc(N)nc2C)CC3)c1` [Compound 46, (S)-N-((6-amino-2-methylpyridin-3-yl)methyl)-3-((3-ethylbenzyl)amino)-4-oxo-4,6,7,8-tetrahydropyrrolo[1,2-a]pyrazine-6-carboxamide], in that order: under 500 nM and under 500 nM.
The corresponding values for `Cc1nc(N)ccc1CNC(=O)[C@@H]1CCc2cnc(NCc3cccc(CO)c3)c(=O)n21` [Compound 47, (S)-N-((6-amino-2-methylpyridin-3-yl)methyl)-3-((3-(hydroxymethyl)benzyl)amino)-4-oxo-4,6,7,8-tetrahydropyrrolo[1,2-a]pyrazine-6-carboxamide] are under 500 nM and under 500 nM.
Take `COc1cc(C)cc(CNc2ncc3n(c2=O)[C@H](C(=O)NCc2ccc(N)nc2C)CC3)c1` [Compound 49, (S)-N-((6-amino-2-methylpyridin-3-yl)methyl)-3-((3-methoxy-5-methylbenzyl)amino)-4-oxo-4,6,7,8-tetrahydropyrrolo[1,2-a]pyrazine-6-carboxamide]: the Ki at MASP-2 (CCP1-CCP2-SP) and at human α-thrombin was under 500 nM throughout.
With `Cc1cc(C)cc(CNc2ncc3n(c2=O)[C@H](C(=O)NCc2cc4cnc(C)cc4[nH]2)CC3)c1` [Compound 50, (S)-3-((3,5-dimethylbenzyl)amino)-N-((6-methyl-1H-pyrrolo[3,2-c]pyridin-2-yl)methyl)-4-oxo-4,6,7,8-tetrahydropyrrolo[1,2-a]pyrazine-6-carboxamide], the figures for the Ki at MASP-2 (CCP1-CCP2-SP) and on human α-thrombin were under 500 nM and 10000 to 25000 nM, respectively.
Consider `COc1cc(C)cc(CNc2ncc3n(c2=O)[C@H](C(=O)NCc2cc4cnc(C)cc4[nH]2)CC3)c1` [Compound 51, (S)-3-((3-methoxy-5-methylbenzyl)amino)-N-((6-methyl-1H-pyrrolo[3,2-c]pyridin-2-yl)methyl)-4-oxo-4,6,7,8-tetrahydropyrrolo[1,2-a]pyrazine-6-carboxamide], for which the Ki at MASP-2 (CCP1-CCP2-SP) is under 500 nM; at human α-thrombin, 2500 to 10000 nM.
On to `Cc1ccccc1CNc1ncc2n(c1=O)[C@H](C(=O)NCc1ccc(N)nc1C)CC2` [Compound 52, (S)-N-((6-amino-2-methylpyridin-3-yl)methyl)-3-((2-methylbenzyl)amino)-4-oxo-4,6,7,8-tetrahydropyrrolo[1,2-a]pyrazine-6-carboxamide], for which the Ki at MASP-2 (CCP1-CCP2-SP) and on human α-thrombin was under 500 nM each time.
`Cc1ccccc1CNc1ncc2n(c1=O)[C@H](C(=O)NCc1cc3cnccc3[nH]1)CC2` [Compound 53, (S)-N-((1H-pyrrolo[3,2-c]pyridin-2-yl)methyl)-3-((2-methylbenzyl)amino)-4-oxo-4,6,7,8-tetrahydropyrrolo[1,2-a]pyrazine-6-carboxamide]: the Ki was under 500 nM on MASP-2 (CCP1-CCP2-SP) and 500 to 2500 nM on human α-thrombin.
The corresponding values for `O=C(NCc1cc2cnccc2[nH]1)[C@@H]1CCc2cnc(NCc3cc(F)cc(F)c3)c(=O)n21` [Compound 54, (S)-N-((1H-pyrrolo[3,2-c]pyridin-2-yl)methyl)-3-((3,5-difluorobenzyl)amino)-4-oxo-4,6,7,8-tetrahydropyrrolo[1,2-a]pyrazine-6-carboxamide] are under 500 nM and 500 to 2500 nM.
The corresponding values for `Cc1ccc(C)c(CNc2ncc3n(c2=O)[C@H](C(=O)NCc2ccc(N)nc2C)CC3)c1` [Compound 55, (S)-N-((6-amino-2-methylpyridin-3-yl)methyl)-3-((2,5-dimethylbenzyl)amino)-4-oxo-4,6,7,8-tetrahydropyrrolo[1,2-a]pyrazine-6-carboxamide] are under 500 nM and under 500 nM.
As to `Cc1ccc(C)c(CNc2ncc3n(c2=O)[C@H](C(=O)NCc2cc4cnccc4[nH]2)CC3)c1` [Compound 56, (S)-N-((1H-pyrrolo[3,2-c]pyridin-2-yl)methyl)-3-((2,5-dimethylbenzyl)amino)-4-oxo-4,6,7,8-tetrahydropyrrolo[1,2-a]pyrazine-6-carboxamide], the figures for the Ki at MASP-2 (CCP1-CCP2-SP) and on human α-thrombin were under 500 nM and 500 to 2500 nM, respectively.
With `Cc1ccc(C)c(CNc2ncc3n(c2=O)[C@H](C(=O)NCc2cc4cnc(C)cc4[nH]2)CC3)c1` [Compound 57, (S)-3-((2,5-dimethylbenzyl)amino)-N-((6-methyl-1H-pyrrolo[3,2-c]pyridin-2-yl)methyl)-4-oxo-4,6,7,8-tetrahydropyrrolo[1,2-a]pyrazine-6-carboxamide], the Ki is under 500 nM on MASP-2 (CCP1-CCP2-SP) and 10000 to 25000 nM at human α-thrombin.
The corresponding values for `Cc1cc2[nH]c(CNC(=O)[C@@H]3CCc4cnc(NCc5cccc(C)c5C)c(=O)n43)cc2cn1` [Compound 58, (S)-3-((2,3-dimethylbenzyl)amino)-N-((6-methyl-1H-pyrrolo[3,2-c]pyridin-2-yl)methyl)-4-oxo-4,6,7,8-tetrahydropyrrolo[1,2-a]pyrazine-6-carboxamide] are under 500 nM and over 25000 nM.
For `Cc1cccc(CNc2ncc3n(c2=O)[C@H](C(=O)NCc2cc4cnccc4[nH]2)CC3)c1C` [Compound 59, (S)-N-((1H-pyrrolo[3,2-c]pyridin-2-yl)methyl)-3-((2,3-dimethylbenzyl)amino)-4-oxo-4,6,7,8-tetrahydropyrrolo[1,2-a]pyrazine-6-carboxamide], in that order: under 500 nM and 500 to 2500 nM.
The corresponding values for `Cc1cccc(CNc2ncc3n(c2=O)[C@H](C(=O)NCc2ccc(N)nc2C)CC3)c1C` [Compound 60, (S)-N-((6-amino-2-methylpyridin-3-yl)methyl)-3-((2,3-dimethylbenzyl)amino)-4-oxo-4,6,7,8-tetrahydropyrrolo[1,2-a]pyrazine-6-carboxamide] are under 500 nM and under 500 nM.

For orientation: Ki means a measure of affinity in units of concentration, obtained from inhibition or displacement. High values mean a looser hold on the target, low ones a stronger hold on the target.
